Like-named read-outs stand apart in the source and are kept apart here.
What was measured:
Conditions in all cases: Klebsiella pneumoniae
[1] = tested on: K. pneumoniae NVT1001 and its ΔompK35/36 and/or ΔramR mutants; assay: Etest MIC, OmpK35/36 loss and AcrAB-TolC overexpression (ΔramR) strains (Table 6); assay type: cell-based, Klebsiella pneumoniae
Summary of the method: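 Ceftazidime and cefotaxime were tested by CLSI broth microdilution on the blaOXA-48 pACYC177 transformant of NVT1001, using CLSI 2017 breakpoints. Parent, porin-deleted (ΔompK35/36) and ΔramR strains were tested by Etest, with values between two-fold dilutions rounded up.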

[2] = tested on: K. pneumoniae NVT1001 strains with carbapenemase plasmids; assay: Etest MIC of β-lactams, OmpK35/36 loss, ΔramR and/or carbapenemase (Table 9); assay type: cell-based, Klebsiella pneumoniae
Summary of the method: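 Etest MICs, with values between standard dilutions rounded up to the next two-fold step, were measured in K. pneumoniae NVT1001 carrying PCR-cloned resistance genes on pACYC177 or pACYC184 plasmids. Interpretation used CLSI 2017 breakpoints, CLSI 2015 for cephalothin and EUCAST 2017 for moxifloxacin. For the blaOXA-48 strain, ceftazidime and cefotaxime were additionally tested by CLSI broth microdilution.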

[3] = tested on: K. pneumoniae NVT1001 ΔramRΔompK35/36 mutant and its revertants; assay: Etest MIC, ΔramRΔompK35/36 mutant and its revertants (Table 7); assay type: cell-based

Measured: MIC

C[C@@H](O)[C@H]1C(=O)N2C(C(=O)O)=C(S[C@@H]3CN[C@H](C(=O)N(C)C)C3)[C@H](C)[C@H]12 [Meropenem]
> 32 µg/mL: [2]; IMP-8 on pACYC177, Δ35/36 (ΔompK35/36 mutant) | [2]; IMP-8 on pACYC177, ΔramRΔ35/36 (ΔramRΔompK35/36 mutant) | [2]; IMP-8 on pACYC177, ΔramRΔ36 (ΔramRΔompK36 mutant) | [2]; KPC-2 on pACYC177, Δ35 (ΔompK35 mutant) | [2]; KPC-2 on pACYC177, Δ35/36 (ΔompK35/36 mutant) | [2]; KPC-2 on pACYC177, Δ36 (ΔompK36 mutant) | [2]; KPC-2 on pACYC177, ΔramRΔ35 (ΔramRΔompK35 mutant) | [2]; KPC-2 on pACYC177, ΔramRΔ35/36 (ΔramRΔompK35/36 mutant) | [2]; KPC-2 on pACYC177, ΔramRΔ36 (ΔramRΔompK36 mutant) | [2]; KPC-3 on pACYC177, Δ35/36 (ΔompK35/36 mutant) | [2]; KPC-3 on pACYC177, Δ36 (ΔompK36 mutant) | [2]; KPC-3 on pACYC177, ΔramRΔ35 (ΔramRΔompK35 mutant) | [2]; KPC-3 on pACYC177, ΔramRΔ35/36 (ΔramRΔompK35/36 mutant) | [2]; KPC-3 on pACYC177, ΔramRΔ36 (ΔramRΔompK36 mutant) | [2]; NDM-1 on pACYC177, Δ35/36 (ΔompK35/36 mutant) | [2]; NDM-1 on pACYC177, Δ36 (ΔompK36 mutant) | [2]; NDM-1 on pACYC177, ΔramRΔ35/36 (ΔramRΔompK35/36 mutant) | [2]; NDM-1 on pACYC177, ΔramRΔ36 (ΔramRΔompK36 mutant) | [2]; OXA-48 on pACYC177, Δ35/36 (ΔompK35/36 mutant) | [2]; OXA-48 on pACYC177, ΔramRΔ35/36 (ΔramRΔompK35/36 mutant) | [2]; OXA-48 on pACYC177, ΔramRΔ36 (ΔramRΔompK36 mutant) | [2]; VIM-1 on pACYC177, Δ35 (ΔompK35 mutant) | [2]; VIM-1 on pACYC177, Δ35/36 (ΔompK35/36 mutant) | [2]; VIM-1 on pACYC177, Δ36 (ΔompK36 mutant) | [2]; VIM-1 on pACYC177, ΔramR mutant | [2]; VIM-1 on pACYC177, ΔramRΔ35/36 (ΔramRΔompK35/36 mutant) | [2]; VIM-1 on pACYC177, ΔramRΔ36 (ΔramRΔompK36 mutant)
0.5 µg/mL: [1]; Δ35/36, ΔompK35/36 mutant | [2]; no supplemental plasmid, Δ35/36 (ΔompK35/36 mutant) | [3]; ΔramRΔompK35/36::ramR revertant
8 µg/mL: [2]; OXA-48 on pACYC177, Δ36 (ΔompK36 mutant)
0.125 µg/mL: [3]; ΔramRΔompK35/36::ramR::ompK35/36 revertant | [3]; ΔramRΔompK35/36::ramR::ompK35 revertant | [3]; ΔramRΔompK35/36::ramR::ompK36 revertant
2 µg/mL: [1]; ΔramRΔ35/36, ΔramRΔompK35/36 mutant | [1]; ΔramRΔ36, ΔramRΔompK36 mutant | [2]; IMP-8 on pACYC177, WT (NVT1001), read-out: MIC | [2]; IMP-8 on pACYC177, Δ36 (ΔompK36 mutant) | [2]; IMP-8 on pACYC177, ΔramR mutant | [2]; IMP-8 on pACYC177, ΔramRΔ35 (ΔramRΔompK35 mutant) | [2]; OXA-48 on pACYC177, WT (NVT1001), read-out: MIC | [2]; OXA-48 on pACYC177, Δ35 (ΔompK35 mutant) | [2]; OXA-48 on pACYC177, ΔramR mutant | [2]; OXA-48 on pACYC177, ΔramRΔ35 (ΔramRΔompK35 mutant) | [2]; no supplemental plasmid, ΔramRΔ35/36 (ΔramRΔompK35/36 mutant) | [2]; no supplemental plasmid, ΔramRΔ36 (ΔramRΔompK36 mutant) | [3]; ΔramRΔompK35/36::ompK35 revertant | [3]; ΔramRΔompK35/36 mutant
32 µg/mL: [2]; KPC-2 on pACYC177, WT (NVT1001), read-out: MIC | [2]; KPC-2 on pACYC177, ΔramR mutant | [2]; KPC-3 on pACYC177, Δ35 (ΔompK35 mutant) | [2]; KPC-3 on pACYC177, ΔramR mutant | [2]; NDM-1 on pACYC177, WT (NVT1001), read-out: MIC | [2]; NDM-1 on pACYC177, Δ35 (ΔompK35 mutant) | [2]; NDM-1 on pACYC177, ΔramR mutant | [2]; NDM-1 on pACYC177, ΔramRΔ35 (ΔramRΔompK35 mutant) | [2]; VIM-1 on pACYC177, ΔramRΔ35 (ΔramRΔompK35 mutant)
16 µg/mL: [2]; KPC-3 on pACYC177, WT (NVT1001), read-out: MIC | [2]; VIM-1 on pACYC177, WT (NVT1001), read-out: MIC
1 µg/mL: [2]; IMP-8 on pACYC177, Δ35 (ΔompK35 mutant)
0.06 µg/mL: [1]; WT, NVT1001, read-out: MIC | [1]; Δ35, ΔompK35 mutant | [1]; Δ36, ΔompK36 mutant | [1]; ΔramR mutant | [1]; ΔramRΔ35, ΔramRΔompK35 mutant | [2]; no supplemental plasmid, WT (NVT1001), read-out: MIC | [2]; no supplemental plasmid, Δ35 (ΔompK35 mutant) | [2]; no supplemental plasmid, Δ36 (ΔompK36 mutant) | [2]; no supplemental plasmid, ΔramR mutant | [2]; no supplemental plasmid, ΔramRΔ35 (ΔramRΔompK35 mutant) | [3]; ΔramRΔompK35/36::ompK35/36 revertant | [3]; ΔramRΔompK35/36::ompK36 revertant

— patent US10760110B2, “Antibiotic testing and screening system” (priority 2017, dated 2020)
